For series [1] the following is noted: in vivo. The text has this: Many cancer therapeutics are cytotoxic in nature and have profound effects on blood cells resulting in cytopenia.
A further series concerns PDGF-R. Nature of the series: PDGF-BB-stimulated PDGF-R autophosphorylation, C6 cells, western blot. Format: cell-based, rat. Further details: PDGF stimulated receptor phosphorylation: dose or concentration left out as unconfirmed. The procedure: For western blotting, cells were plated in 2 mL growth medium into 6-well dishes (500,000 cells per well) and allowed to attach overnight. The medium was replaced with 2 mL MCDB 105 (UCSF Cell Culture Facility) supplemented with 1% FBS. The plates were then incubated overnight at 37° C., ambient CO2. […] After a 7 min incubation at room temperature with ligand, the plates were put on ice and washed three times with 1 mL ice-cold PBS plus 1 mM orthovanadate. Lysis was achieved by pipetting cells in 0.5 mL of buffer containing 50 mM Tris, pH 7.4, 10% glycerol, 1% NP-40, 2 mM EDTA, 1 mM sodium vanadate (Na3 VO4), 10 mM pyrophosphate, 1 mM PMSF, 10 mg/mL aprotinin, 10 mg/mL leupeptin. […] The integrity of the protein-to-membrane transfer was determined by staining with 1% Ponceau S in 5% acetic acid for 5 min. […] Phosphotyresine was detected by incubating the membrane (1 hr at room temperature) with an anti-phosphotyosine antiserum diluted in blocking buffer at 1:3000. […]
Proteins were then separated by SDS-polyacrylamide gel electrophoresis (PAGE). […] The level of phosphorylated tyrosine was determined by quantitating the amount of bound anti-phosphotyrosine. Quantitation was carried out by peak area integration using a Molecular Dynamics Computing Densitometer (Model 300S), and Image Quant v3.0 software (Molecule Dynamics). […]

The next series can be described thus: in vivo. The note with it: mouse, ip. As to the method: The LD50 was calculated from a plot of % mortality versus dose (log M) using a four parameter logistic equation.
Series [2] deals with glioblastoma multiformae (GBM) primary tumor cells. Description: Growth of primary tumor cells from glioblastoma patients. The series is classed as cell-based, human. As to the method:
Viable tumors were placed into medium by the pathologist at the referring institution immediately after surgery, and shipped to Oncotech by overnight delivery. As soon as a tumor was received, a portion was fixed in formalin for sectioning and the remainder trimmed of necrotic, connective and adipose tissues. All tumor manipulations were performed aseptically. The remaining tumor was placed into a Petri dish containing 5 mL of medium (RPMI 1640 supplemented with 10% FBS, 100 IU/mL penicillin, […] streptomycin and L-glutamine) and disaggregated mechanically with scissors into pieces 2 mm or smaller. […]
After enzymatic dispersion into a near single-cell suspension, tumor cells were filtered through nylon mesh, washed in medium, suspended in soft agarose (0.12%) and plated at approximately 20,000 cells per well onto an agarose underlayer (0.4%) in 24-well plates. […] After the appropriate labeling period, tissue culture plates were heated at 60° C. to melt the agarose, the cells harvested with a micro-harvester onto glass fiber filters and the radioactivity determined. Percent inhibition (PCI) was determined using the formula: PCI=1-(CPM treatment group […] CPM control group). Determinations of control group proliferation were performed in quadruplicate, while treatment group proliferation was determined in triplicate. […]

The test system of series [3] is autoimmune animal diseases. The note with it: in vivo; cited from earlier work.

`Cc1oncc1C(=O)Nc1ccc(C(F)(F)F)cc1` [Compound A10, 5-methylisoxazole-4 carboxylic acid-(4-trifluromethyl)-anilide]: the “effects on blood cell” value in series [1] is “No effects on blood cell were observed”. Besides, in the series on PDGF-R (200 mM A10, 20 ng/ml PDGF-BB), the “reduction of PDGF-R phosphorylation” value is given as “reduced PDGF-R phosphorylation below that occurring in the absence of PDGF-BB stimulation”. Also, the “PDGF stimulated receptor phosphorylation” value in the series with PDGF-R (increasing concentrations (50, 100)) is “reduced PDGF stimulated receptor phosphorylation”. The molecule also came in with a 50% lethal dose (LD50) in “in vivo” of 145 mg/kg. For the same molecule, the tumor cell growth result in series [2] (0 to 400 mM) is given as “tumor cell growth decreased for both types of tumors”. For the same molecule, in series [2] (Homo sapiens, range over six patients, read-out: IC50, GBM tumors), the IC50 fell in the range of 39 to 198 µM. Further, the autoimmune animal diseases entry in series [3] is “very effective in preventing and curing several autoimmune animal diseases”.

The values above are taken from US6331555A, “Treatment of platelet derived growth factor related disorders such as cancers” (priority 1999, dated 2001).
